Our source for the Ki and melting point values is US20040063643A1, “Bombesin antagonists” (Pfizer Inc., priority 2002, published 2004).

Molecules are shown by their SMILES.

The target of one data set is BB2 (Homo sapiens, UniProt P30550). The data set can be described thus: Bombesin BB2 receptor binding assay. As for the experimental part: Drug dilutions are performed using the Tecan Genesis/Miniprep handling stations. Assays are set up as follows
25 μl test compound/total/NSB
200 μl cell memb preparation
Assay additions using deep well Multidrop.
Non-specific binding is defined by 1 μM Bombesin 1% DMSO (final concentration).
1. Add membranes to start incubation. Vortex and incubate at 21° C. GRP assay=90 min; NMB assay=60 min.
2. Terminate reactions by rapid filtration onto GF\C filters or GF\C Unifilter plates presoaked in 0.2% PEI for >1 hour) using the appropriate Brandel cell harvester.
3. Wash with ice-cold HEPES HCl (50 mM, pH 7.4 at 21° C.).
Filter mats 6×1 ml total wash volume
Unifilter plates 2×1 ml total wash volume
4. Unifilters are dried at 50° C. for 60 minutes. Add 50 μl Microscint-0, Seal plates with Top-Seal A and count using TopCount NXT.
(§1) For each assay plate, total (1% DMSO) and non-specific (1 μM, 1% DMSO), binding will be measured for the ligand on the receptor. Specific binding of the radioactive ligand to the receptor can thus be calculated to which specific binding of the radioactive ligand in the presence of a competing compound can be calculated and expressed as percentage inhibition of radioactive ligand binding.

For data set [1], the target named is T1, human bombesin BB1 receptors (Homo sapiens, UniProt P28336).
T1 construct: expressed in transfected cells; host or cells: CHO cells
The data set can be described thus: Bombesin BB1 receptor binding assay, [125I][6-14]Bombesin, CHO cell membranes. The note with it: membranes from CHO cells expressing human BB1. The procedure:
The compounds of the present invention are a potent class of bombesin antagonists. Bombesin antagonism may be measured using the following binding assay using membranes from CHO cells expressing the human bombesin BB1 receptors.
Cells are maintained in Ham's F12 medium (Life Technologies Ltd, Cat No. 31765-027) supplemented with 10% FBS (Life Tech. Ltd., 10109-155) and 2 mM glutamine (or Glutamax in media). Cells are routinely passaged once weekly (split 1:5, approximate seeding density=1-4 million per […] flask), and fed every 2 days with fresh medium. Cells are frozen down (in Hams F12 containing 5% DMSO) 4-7 days after passaging and stored at −70° C. until required for use in binding experiments.
Frozen cells rapidly thawed and diluted with excess medium (each aliquot made up to 40 ml).
Cells harvested by centrifuging at 3000 g for 4 min at 21° C.
Cells resuspended in known volume of assay buffer, and cell count performed.
Membranes prepared by polytronning (setting 5, 10 secs). […]
as §1

Chain of BB2 (P30550 whole entry): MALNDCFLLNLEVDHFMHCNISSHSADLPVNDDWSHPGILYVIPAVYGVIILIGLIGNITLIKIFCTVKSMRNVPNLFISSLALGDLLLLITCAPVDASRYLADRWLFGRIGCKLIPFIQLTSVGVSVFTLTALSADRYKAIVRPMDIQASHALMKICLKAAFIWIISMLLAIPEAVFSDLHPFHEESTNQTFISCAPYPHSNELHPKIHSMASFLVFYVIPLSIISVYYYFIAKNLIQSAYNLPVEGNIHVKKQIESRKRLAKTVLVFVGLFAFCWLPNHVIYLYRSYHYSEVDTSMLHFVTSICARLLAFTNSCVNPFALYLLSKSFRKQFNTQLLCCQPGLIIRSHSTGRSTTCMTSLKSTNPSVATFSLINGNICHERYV
T1 sequence (P28336 whole entry): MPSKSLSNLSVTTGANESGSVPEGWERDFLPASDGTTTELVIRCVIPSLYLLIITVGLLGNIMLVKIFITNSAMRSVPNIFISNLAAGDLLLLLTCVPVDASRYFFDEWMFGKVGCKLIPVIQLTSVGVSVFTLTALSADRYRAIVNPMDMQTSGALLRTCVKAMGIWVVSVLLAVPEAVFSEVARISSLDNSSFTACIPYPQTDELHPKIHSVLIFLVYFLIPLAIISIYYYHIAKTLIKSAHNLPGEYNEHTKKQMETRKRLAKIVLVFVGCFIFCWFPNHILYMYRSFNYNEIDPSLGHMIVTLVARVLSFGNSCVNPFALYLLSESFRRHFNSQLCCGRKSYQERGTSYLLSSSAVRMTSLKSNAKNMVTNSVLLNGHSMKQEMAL

For the compound `O=C(NCc1cccc(Cl)c1Cl)N(Cc1ccc(O)cc1)CC1(c2ccccn2)CCCCC1` [Example 1, 3-(2,3-Dichloro-benzyl)-1-(4-hydroxy-benzyl)-1-(1-pyridin-2-yl-cyclohexylmethyl)-urea], the figures for the inhibitory constant (Ki) (on BB2; in data set [1]) were 3.59 µM and 0.082 µM, respectively.

Turning to `CC(C)c1cccc(C(C)C)c1NC(=O)N(Cc1ccccc1)CC1(c2nnnn2C)CCCCC1` [Example 180, 1-Benzyl-3-(2,6-diisopropyl-phenyl)-1-[1-(1-methyl-1H-tetrazol-5-yl)-cyclohexylmethyl]-urea], the melting point was in the range of 150 to 152 °C.

For `CC(C)c1cccc(C(C)C)c1NC(=O)N(Cc1ccccc1)CC1(c2ncccn2)CCCCC1` [Example 181, 1-Benzyl-3-(2,6-diisopropyl-phenyl)-1-(1-pyrimidin-2-yl-cyclohexylmethyl)-urea], the melting point is 112.5 to 113.5 °C.

`Cc1cccc(CNC(=O)N(CC2CC2)CC2(c3ccccn3)CCCCC2)c1C` [Example 184, 1-Cyclopropylmethyl-3-(2,3-dimethyl-benzyl)-1-(1-pyridin-2-yl-cyclohexylmethyl)-urea] displayed a melting point of 102 to 103 °C.
